Measurements published in the supplement of paper PMC10307832.

How the values were obtained:
Assay in all cases: relative viability (nuclei count vs DMSO), 5 days (fraction); higher = more cells survive
Quizartinib + Phenformin = compound: CC(C)(C)c1cc(NC(=O)Nc2ccc(-c3cn4c(n3)sc3cc(OCCN5CCOCC5)ccc34)cc2)no1 [Quizartinib] + N=C(N)NC(=N)NCCc1ccccc1 [Phenformin] (partner 250 µM)
Summary of the method: (§1)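 Lung cancer cell lines, seeded in 1536-well plates, were treated the following day by pin tool with a single drug or with five library-drug doses (not always all listed) in √10 steps on top of a fixed anchor-drug dose. Cells were fixed and nuclei stained in one step after 5 days, and nuclei were counted. Relative viability is the nuclei count for treated wells divided by that for vehicle wells, reported as medians of duplicate plates.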

YM155 + Trametinib = compound: COCC[n+]1c2c(n(Cc3cnccn3)c1C)C(=O)c1ccccc1C2=O [YM155] + CC(=O)Nc1cccc(-n2c(=O)n(C3CC3)c(=O)c3c(Nc4ccc(I)cc4F)n(C)c(=O)c(C)c32)c1 [Trametinib] (partner 0.02 µM)
Summary of the method: as §1

YM155 + Pictilisib = compound: COCC[n+]1c2c(n(Cc3cnccn3)c1C)C(=O)c1ccccc1C2=O [YM155] + CS(=O)(=O)N1CCN(Cc2cc3nc(-c4cccc5[nH]ncc45)nc(N4CCOCC4)c3s2)CC1 [Pictilisib] (partner 1 µM)
Summary of the method: as §1

YM155 + Vorinostat = compound: COCC[n+]1c2c(n(Cc3cnccn3)c1C)C(=O)c1ccccc1C2=O [YM155] + O=C(CCCCCCC(=O)Nc1ccccc1)NO [Vorinostat] (partner 1 µM)
Summary of the method: as §1

Cell Line	relative viability (Quizartinib + Phenformin; first compound 0.001 µM)	relative viability (Quizartinib + Phenformin; first compound 0.003162 µM)	relative viability (Quizartinib + Phenformin; first compound 0.01 µM)	relative viability (Quizartinib + Phenformin; first compound 0.03162 µM)	relative viability (Quizartinib + Phenformin; first compound 0.1 µM)	relative viability (YM155 + Trametinib; first compound 0.002 µM)	relative viability (YM155 + Trametinib; first compound 0.006325 µM)	relative viability (YM155 + Trametinib; first compound 0.02 µM)	relative viability (YM155 + Trametinib; first compound 0.06325 µM)	relative viability (YM155 + Pictilisib; first compound 0.002 µM)	relative viability (YM155 + Pictilisib; first compound 0.006325 µM)	relative viability (YM155 + Pictilisib; first compound 0.02 µM)	relative viability (YM155 + Pictilisib; first compound 0.06325 µM)	relative viability (YM155 + Vorinostat; first compound 0.002 µM)	relative viability (YM155 + Vorinostat; first compound 0.006325 µM)	relative viability (YM155 + Vorinostat; first compound 0.02 µM)	relative viability (YM155 + Vorinostat; first compound 0.06325 µM)
NCI-H1993	0.478	0.48	0.523	0.441	0.625	0.466	0.536	0.427	0.453	0.697	0.733	0.798	0.789	0.739	0.714	0.667	0.523
NCI-H2009	0.464	0.48	0.504	0.44	0.174	0.273	0.295	0.354	0.358	0.8	0.796	0.852	0.57	0.685	0.693	0.726	0.621
NCI-H2023	0.347	0.378	0.372		0.312	0.538	0.617	0.451	0.241	0.237	0.23	0.25	0.112	0.738	0.817	0.792	0.171
NCI-H2085	0.631	0.648	0.753	0.673	0.574	0.573	0.659	0.679	0.348	0.435	0.38	0.534	0.429	0.677	0.795	0.757	0.625
NCI-H2087		0.429	0.458	0.369	0.516	0.143	0.179	0.271	0.225	0.868	0.762	0.931	0.642	0.667	0.759	0.55	0.44
NCI-H2126	0.518	0.58	0.534		0.576	0.558	0.582	0.541	0.556	0.427	0.525	0.466	0.54	0.782	0.834	0.865	0.851
NCI-H2170	0.415	0.432	0.403	0.436	0.378	0.878	0.936	0.903	0.966	0.296	0.357	0.349	0.329	0.725	0.752	0.863	0.842
NCI-H2228	0.242	0.228	0.52	0.345	0.26	0.485	0.444	0.565	0.589	0.338	0.278	0.384	0.388	0.451	0.82	0.585	0.51
NCI-H2347	0.268	0.359	0.461	0.395	0.497	0.279	0.258	0.306	0.283	0.574	1.03	0.829	0.633	0.506	0.488	0.521	0.476
NCI-H2405	0.42	0.414	0.402	0.407	0.383	0.661	0.595	0.596	0.384	0.407	0.316	0.395	0.312	0.973	0.964	0.917	0.533
NCI-H3122		0.377	0.381		0.359	0.191	0.202	0.242	0.203	0.601	0.615	0.606	0.506	0.828	0.746	1.05	0.976
PC-3 [JPC-3]	0.453	0.466	0.469	0.481	0.506	0.774	0.666	0.685	0.598	0.651	0.792	0.801	0.759	0.746	0.889	0.855	0.74
PC-14	0.493	0.698	0.571	0.394	0.978	0.617	0.672	0.36	0.119	0.648	0.717	0.693	0.536	0.669	0.694	0.779	0.252
RERF-LC-KJ	0.394	0.397	0.424	0.359	0.315	0.896	0.952	0.942	0.707	0.527	0.51	0.55	0.593	0.694	0.794	0.654	0.759
SK-LU-1	0.482	0.504	0.625	0.451	0.549	0.455	0.456	0.564	0.438	0.606	0.496	0.483	0.545	0.732	0.762	0.845	0.642
SK-MES-1	0.593	0.636	0.677		0.612	0.588	0.701	0.459	0.218	0.395	0.359	0.377	0.24	1	1.17	1.11	0.415
SW 1573	0.355	0.369	0.397		0.367	0.59	0.453	0.16	0.0853	0.484	0.465	0.426	0.0949	0.698	0.731	0.603	0.0728
UMC-11		0.255	0.307	0.268	0.212	0.56	0.745	0.771	0.739	0.68	0.863	0.824	0.787	0.392	0.35	0.377	0.343
